Here are results for eight compounds from ChEMBL document CHEMBL5291721, “A preclinical secondary pharmacology resource illuminates target-adverse drug reaction associations of marketed drugs” (Nat Commun, 2023).

Some targets named below: Mu-type opioid receptor (Homo sapiens, UniProt P35372); D(3) dopamine receptor (Homo sapiens, UniProt P35462); D(1A) dopamine receptor (Homo sapiens, UniProt P21728); Histamine H3 receptor (Homo sapiens, UniProt Q9Y5N1).
For test [1], the target named is Sodium-dependent dopamine transporter (Homo sapiens, UniProt Q01959).
Chain of Sodium-dependent dopamine transporter (Q01959 whole entry): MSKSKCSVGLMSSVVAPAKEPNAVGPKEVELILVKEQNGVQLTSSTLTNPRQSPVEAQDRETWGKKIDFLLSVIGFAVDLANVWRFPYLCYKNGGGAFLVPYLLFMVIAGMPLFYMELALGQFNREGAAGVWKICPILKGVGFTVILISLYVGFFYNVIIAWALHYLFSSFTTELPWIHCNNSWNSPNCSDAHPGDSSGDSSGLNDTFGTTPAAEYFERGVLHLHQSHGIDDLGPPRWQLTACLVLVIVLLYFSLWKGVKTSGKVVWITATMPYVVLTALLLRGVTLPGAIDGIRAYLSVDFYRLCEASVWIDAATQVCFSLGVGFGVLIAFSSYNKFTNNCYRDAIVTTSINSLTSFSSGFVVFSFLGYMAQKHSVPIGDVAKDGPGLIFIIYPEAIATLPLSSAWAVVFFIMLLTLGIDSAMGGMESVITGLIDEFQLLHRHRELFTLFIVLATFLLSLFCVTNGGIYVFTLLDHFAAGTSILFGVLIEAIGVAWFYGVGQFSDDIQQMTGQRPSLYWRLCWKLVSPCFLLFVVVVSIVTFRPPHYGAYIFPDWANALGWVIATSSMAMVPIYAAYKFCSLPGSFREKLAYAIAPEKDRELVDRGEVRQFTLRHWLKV
The target in test [2] is T1, Thromboxane A2 receptor (Homo sapiens, UniProt P21731).
T1 sequence (P21731 whole entry): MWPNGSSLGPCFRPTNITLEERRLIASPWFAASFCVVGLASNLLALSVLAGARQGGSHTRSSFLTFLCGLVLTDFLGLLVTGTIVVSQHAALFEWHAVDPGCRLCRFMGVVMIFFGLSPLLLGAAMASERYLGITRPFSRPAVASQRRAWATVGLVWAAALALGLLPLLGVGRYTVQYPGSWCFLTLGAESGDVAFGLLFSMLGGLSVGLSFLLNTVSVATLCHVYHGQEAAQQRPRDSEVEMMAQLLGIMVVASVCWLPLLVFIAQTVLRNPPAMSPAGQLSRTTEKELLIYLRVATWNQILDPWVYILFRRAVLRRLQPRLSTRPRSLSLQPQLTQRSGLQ
The test is classed as functional, cell-based.

In test [3] the target is T1, Thromboxane A2 receptor. The test is classed as functional, cell-based. The source holds these as a separate data set.
Test [4] addresses T2, Prostaglandin G/H synthase 1 (Homo sapiens, UniProt P23219). The class given is functional.
The target in test [5] is T3, Muscarinic acetylcholine receptor M2 (Homo sapiens, UniProt P08172).
T3 sequence (P08172 whole entry): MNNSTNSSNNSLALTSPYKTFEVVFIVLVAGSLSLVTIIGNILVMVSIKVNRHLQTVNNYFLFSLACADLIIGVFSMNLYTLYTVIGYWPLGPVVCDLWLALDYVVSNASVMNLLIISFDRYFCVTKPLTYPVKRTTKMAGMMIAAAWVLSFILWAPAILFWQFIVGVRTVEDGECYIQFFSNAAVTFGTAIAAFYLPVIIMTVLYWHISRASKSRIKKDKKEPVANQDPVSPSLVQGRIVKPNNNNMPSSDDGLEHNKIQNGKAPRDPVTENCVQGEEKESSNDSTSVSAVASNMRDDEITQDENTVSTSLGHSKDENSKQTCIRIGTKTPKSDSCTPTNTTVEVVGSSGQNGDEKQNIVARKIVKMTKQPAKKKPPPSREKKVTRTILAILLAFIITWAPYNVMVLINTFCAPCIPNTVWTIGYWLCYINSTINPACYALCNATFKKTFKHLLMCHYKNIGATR

Test [6] addresses Sodium-dependent noradrenaline transporter (Homo sapiens, UniProt P23975).
The next test has as its target Bile salt export pump (Homo sapiens, UniProt O95342). The test is classed as functional.
In test [7] the target is T4, 5-hydroxytryptamine receptor 1A (Homo sapiens, UniProt P08908).
T4 sequence (P08908 whole entry): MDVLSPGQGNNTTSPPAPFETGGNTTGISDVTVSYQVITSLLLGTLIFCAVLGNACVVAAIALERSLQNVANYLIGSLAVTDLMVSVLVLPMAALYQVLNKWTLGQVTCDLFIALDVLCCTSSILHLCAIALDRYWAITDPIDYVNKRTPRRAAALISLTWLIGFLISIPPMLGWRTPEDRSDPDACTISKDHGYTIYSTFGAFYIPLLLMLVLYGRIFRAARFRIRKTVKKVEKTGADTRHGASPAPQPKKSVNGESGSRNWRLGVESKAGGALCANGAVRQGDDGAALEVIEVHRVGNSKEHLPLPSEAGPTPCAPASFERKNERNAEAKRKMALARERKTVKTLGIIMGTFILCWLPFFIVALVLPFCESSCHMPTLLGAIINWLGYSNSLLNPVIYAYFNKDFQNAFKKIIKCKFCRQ

Test [8] has as its target T5, Amine oxidase [flavin-containing] A (Homo sapiens, UniProt P21397).
T5 sequence (P21397 whole entry): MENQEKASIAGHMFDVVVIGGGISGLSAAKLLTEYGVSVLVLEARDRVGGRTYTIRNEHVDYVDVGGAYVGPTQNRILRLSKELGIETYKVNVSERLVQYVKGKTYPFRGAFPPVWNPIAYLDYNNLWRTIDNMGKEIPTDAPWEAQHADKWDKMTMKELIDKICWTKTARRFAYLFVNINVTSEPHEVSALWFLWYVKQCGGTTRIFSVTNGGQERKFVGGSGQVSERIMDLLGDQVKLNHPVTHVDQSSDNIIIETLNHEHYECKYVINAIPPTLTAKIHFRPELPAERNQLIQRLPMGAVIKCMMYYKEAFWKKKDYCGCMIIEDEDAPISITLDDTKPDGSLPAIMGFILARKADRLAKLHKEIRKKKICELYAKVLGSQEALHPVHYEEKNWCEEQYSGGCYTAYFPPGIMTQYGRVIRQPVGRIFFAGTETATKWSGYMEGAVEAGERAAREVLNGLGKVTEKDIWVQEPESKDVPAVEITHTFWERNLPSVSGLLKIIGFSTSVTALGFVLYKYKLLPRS
The class given is functional.

Test [9] addresses T2, Prostaglandin G/H synthase 1. The test is classed as functional. This is another data set of the same source.
In test [10] the target is 3',5'-cyclic-AMP phosphodiesterase 4A (Homo sapiens, UniProt P27815). The test is classed as functional.
Chain of 3',5'-cyclic-AMP phosphodiesterase 4A (P27815 whole entry): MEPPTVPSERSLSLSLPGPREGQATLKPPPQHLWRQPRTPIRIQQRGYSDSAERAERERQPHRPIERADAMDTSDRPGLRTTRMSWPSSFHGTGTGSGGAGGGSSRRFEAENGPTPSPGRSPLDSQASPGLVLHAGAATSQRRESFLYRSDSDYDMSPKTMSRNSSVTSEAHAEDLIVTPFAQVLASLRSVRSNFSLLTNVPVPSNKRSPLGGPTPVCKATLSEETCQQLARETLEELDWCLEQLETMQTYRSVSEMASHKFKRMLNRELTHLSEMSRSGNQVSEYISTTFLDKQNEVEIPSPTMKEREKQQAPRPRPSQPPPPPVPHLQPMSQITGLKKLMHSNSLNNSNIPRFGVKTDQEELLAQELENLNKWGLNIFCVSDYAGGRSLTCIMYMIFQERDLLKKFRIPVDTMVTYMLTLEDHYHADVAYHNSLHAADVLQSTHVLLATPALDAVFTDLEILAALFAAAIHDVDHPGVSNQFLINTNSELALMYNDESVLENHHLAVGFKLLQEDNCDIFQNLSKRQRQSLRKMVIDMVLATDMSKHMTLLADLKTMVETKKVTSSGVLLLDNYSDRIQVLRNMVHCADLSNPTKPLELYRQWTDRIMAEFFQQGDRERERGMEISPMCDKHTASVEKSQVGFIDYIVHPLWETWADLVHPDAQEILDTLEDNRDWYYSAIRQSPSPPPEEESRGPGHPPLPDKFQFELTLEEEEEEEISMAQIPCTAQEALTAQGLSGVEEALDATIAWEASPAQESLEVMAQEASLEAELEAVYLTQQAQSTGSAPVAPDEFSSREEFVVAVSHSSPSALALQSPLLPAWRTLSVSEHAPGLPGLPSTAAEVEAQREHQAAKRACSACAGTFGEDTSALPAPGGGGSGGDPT
Test [11] has as its target cGMP-inhibited 3',5'-cyclic phosphodiesterase 3A (Homo sapiens, UniProt Q14432). The test is classed as functional.
The next test has as its target Acetylcholinesterase (Homo sapiens, UniProt P22303). The class given is functional.
Test [12] addresses Voltage-gated inwardly rectifying potassium channel KCNH2 (Homo sapiens, UniProt Q12809). The class given is functional. Conditions: read-out: AC50.
Test [13] has as its target 5-hydroxytryptamine receptor 2B (Homo sapiens, UniProt P41595). The class given is functional, cell-based.

A value given as a limit tells only on which side of the number the result lay.
Further: assay procedure not described here.

Chain of Acetylcholinesterase (P22303 whole entry): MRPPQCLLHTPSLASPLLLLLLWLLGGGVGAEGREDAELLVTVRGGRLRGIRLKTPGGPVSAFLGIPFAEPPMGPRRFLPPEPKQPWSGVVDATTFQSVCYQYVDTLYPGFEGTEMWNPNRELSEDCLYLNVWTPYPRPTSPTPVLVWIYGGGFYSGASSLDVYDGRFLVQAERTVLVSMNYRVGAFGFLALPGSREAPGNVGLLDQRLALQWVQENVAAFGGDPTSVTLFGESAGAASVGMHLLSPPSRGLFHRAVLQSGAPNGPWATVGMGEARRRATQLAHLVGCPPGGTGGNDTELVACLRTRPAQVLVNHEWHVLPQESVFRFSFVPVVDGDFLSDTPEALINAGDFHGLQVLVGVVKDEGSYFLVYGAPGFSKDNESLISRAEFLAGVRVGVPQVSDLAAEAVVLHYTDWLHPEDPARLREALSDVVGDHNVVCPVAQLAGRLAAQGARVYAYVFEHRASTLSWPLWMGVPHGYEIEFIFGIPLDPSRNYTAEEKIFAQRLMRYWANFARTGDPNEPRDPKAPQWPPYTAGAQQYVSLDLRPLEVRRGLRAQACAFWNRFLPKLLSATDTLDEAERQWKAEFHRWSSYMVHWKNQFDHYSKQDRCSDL
Chain of D(1A) dopamine receptor (P21728 whole entry): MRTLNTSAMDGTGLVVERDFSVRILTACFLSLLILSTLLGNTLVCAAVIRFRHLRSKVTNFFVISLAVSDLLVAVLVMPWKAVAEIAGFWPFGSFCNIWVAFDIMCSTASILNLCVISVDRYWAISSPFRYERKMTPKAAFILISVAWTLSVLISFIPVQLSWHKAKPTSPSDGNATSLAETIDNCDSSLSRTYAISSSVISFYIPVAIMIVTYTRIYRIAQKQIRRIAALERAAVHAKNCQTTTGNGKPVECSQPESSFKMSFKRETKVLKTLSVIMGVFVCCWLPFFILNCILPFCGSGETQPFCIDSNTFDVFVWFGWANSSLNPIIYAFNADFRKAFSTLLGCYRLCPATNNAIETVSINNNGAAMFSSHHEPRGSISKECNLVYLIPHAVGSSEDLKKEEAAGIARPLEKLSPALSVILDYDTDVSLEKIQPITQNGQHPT
Chain of Bile salt export pump (O95342 whole entry): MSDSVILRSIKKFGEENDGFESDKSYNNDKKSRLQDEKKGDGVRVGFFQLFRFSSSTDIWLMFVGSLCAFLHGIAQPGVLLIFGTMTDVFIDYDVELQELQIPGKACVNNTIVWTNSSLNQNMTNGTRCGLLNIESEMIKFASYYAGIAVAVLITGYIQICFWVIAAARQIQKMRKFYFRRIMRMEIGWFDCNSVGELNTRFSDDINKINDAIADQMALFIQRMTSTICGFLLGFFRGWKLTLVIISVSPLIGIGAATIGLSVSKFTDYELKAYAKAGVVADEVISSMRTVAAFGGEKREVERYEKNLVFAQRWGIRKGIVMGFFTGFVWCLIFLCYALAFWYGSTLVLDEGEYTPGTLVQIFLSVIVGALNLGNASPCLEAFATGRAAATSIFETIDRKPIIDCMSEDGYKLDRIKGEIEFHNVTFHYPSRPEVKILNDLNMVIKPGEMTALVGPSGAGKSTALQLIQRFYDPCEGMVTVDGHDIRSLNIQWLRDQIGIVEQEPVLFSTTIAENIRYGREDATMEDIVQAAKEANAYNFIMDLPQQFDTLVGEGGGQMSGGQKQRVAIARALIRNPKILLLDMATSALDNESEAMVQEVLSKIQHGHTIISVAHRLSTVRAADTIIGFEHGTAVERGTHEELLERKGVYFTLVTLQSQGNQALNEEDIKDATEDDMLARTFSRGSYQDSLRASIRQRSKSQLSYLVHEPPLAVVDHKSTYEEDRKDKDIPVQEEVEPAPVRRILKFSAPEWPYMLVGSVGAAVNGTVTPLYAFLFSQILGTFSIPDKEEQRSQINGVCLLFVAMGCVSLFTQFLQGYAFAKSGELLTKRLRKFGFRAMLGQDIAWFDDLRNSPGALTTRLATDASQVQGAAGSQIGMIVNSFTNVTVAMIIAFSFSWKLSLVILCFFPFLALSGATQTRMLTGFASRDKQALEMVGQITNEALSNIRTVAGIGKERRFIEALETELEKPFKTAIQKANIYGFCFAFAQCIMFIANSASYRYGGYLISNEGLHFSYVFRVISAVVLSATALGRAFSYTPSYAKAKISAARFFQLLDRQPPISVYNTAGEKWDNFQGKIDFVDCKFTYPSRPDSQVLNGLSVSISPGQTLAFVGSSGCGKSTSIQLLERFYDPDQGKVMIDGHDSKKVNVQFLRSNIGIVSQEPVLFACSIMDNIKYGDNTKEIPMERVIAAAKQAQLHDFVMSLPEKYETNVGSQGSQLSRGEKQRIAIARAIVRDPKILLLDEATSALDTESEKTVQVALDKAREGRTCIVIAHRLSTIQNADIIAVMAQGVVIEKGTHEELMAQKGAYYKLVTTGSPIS
Chain of D(3) dopamine receptor (P35462 whole entry): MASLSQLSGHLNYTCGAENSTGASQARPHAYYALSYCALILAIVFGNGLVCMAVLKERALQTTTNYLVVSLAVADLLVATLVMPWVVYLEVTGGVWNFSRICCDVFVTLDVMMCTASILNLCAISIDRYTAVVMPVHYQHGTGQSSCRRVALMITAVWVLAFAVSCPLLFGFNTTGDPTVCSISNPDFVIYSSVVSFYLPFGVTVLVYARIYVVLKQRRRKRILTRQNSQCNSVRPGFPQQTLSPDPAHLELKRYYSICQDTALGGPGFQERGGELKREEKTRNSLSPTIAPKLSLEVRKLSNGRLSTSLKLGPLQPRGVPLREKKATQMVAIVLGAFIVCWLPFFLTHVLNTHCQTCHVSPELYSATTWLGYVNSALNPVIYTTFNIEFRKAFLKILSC
Chain of Mu-type opioid receptor (P35372 whole entry): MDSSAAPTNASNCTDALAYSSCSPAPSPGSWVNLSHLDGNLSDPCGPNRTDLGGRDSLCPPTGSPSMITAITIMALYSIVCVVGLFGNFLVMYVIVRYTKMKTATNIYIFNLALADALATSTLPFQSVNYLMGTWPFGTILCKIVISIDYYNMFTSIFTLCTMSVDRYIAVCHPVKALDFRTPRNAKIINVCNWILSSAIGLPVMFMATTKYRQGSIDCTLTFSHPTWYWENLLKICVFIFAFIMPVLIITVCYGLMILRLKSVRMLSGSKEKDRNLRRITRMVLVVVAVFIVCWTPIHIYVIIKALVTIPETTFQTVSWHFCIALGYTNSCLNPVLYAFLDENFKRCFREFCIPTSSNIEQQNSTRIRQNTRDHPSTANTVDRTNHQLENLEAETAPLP

For the compound `O=C(O)COc1nn(Cc2ccccc2)c2ccccc12` [BENDAZAC], the AC50 in test [1] is above 30 µM; at Thromboxane A2 receptor [2], above 30 µM; on Thromboxane A2 receptor [3], above 3 µM; on Mu-type opioid receptor it was above 30 µM; in test [4], above 30 µM; in test [5] it was above 30 µM. Besides, the AC50 in [6] was above 30 µM; on Bile salt export pump it was 260 µM; in [7], above 30 µM; on D(3) dopamine receptor, above 30 µM; in test [8], above 30 µM; on D(1A) dopamine receptor, above 30 µM. Besides, the AC50 (on Histamine H3 receptor; in test [9]; in test [10]; in test [11]; at Acetylcholinesterase; in test [12]) was above 30 µM each time. In test [13], this compound came in with an AC50 above 30 µM.
In the case of `Cc1ccc([C@@H]2O[C@H](CO)[C@@H](O)[C@H](O)[C@H]2O)cc1Cc1ccc(-c2ccc(F)cc2)s1` [CANAGLIFLOZIN ANHYDROUS], the AC50 in test [1] is 3.54 µM; on Thromboxane A2 receptor [2], above 30 µM; at Thromboxane A2 receptor [3], above 30 µM; at Mu-type opioid receptor, above 30 µM; in test [4], above 30 µM; in test [5], above 30 µM. Further, the AC50 was above 30 µM in test [6]; 38 µM at Bile salt export pump; above 30 µM in test [7]; above 30 µM on D(3) dopamine receptor; above 30 µM in [8]; above 30 µM at D(1A) dopamine receptor. The AC50 (on Histamine H3 receptor; in test [9]; in [10]; in test [11]; on Acetylcholinesterase; in test [12]) was above 30 µM throughout. In test [13], this compound showed an AC50 above 30 µM.
Consider `CC(=O)Oc1ccccc1C(=O)Nc1ncc([N+](=O)[O-])s1` [NITAZOXANIDE], for which the AC50 in [1] is above 30 µM; at Thromboxane A2 receptor [2], above 30 µM; on Thromboxane A2 receptor [3], above 10 µM; on Mu-type opioid receptor, above 30 µM; in test [4], 0.0114 µM; in test [5], above 30 µM. The AC50 in test [6] was above 30 µM; at Bile salt export pump, 45 µM; in test [7], above 30 µM; at D(3) dopamine receptor it was above 30 µM; in test [8], above 30 µM; at D(1A) dopamine receptor, above 30 µM. Besides, the AC50 was above 30 µM at Histamine H3 receptor; 9.53 µM in [9]; above 30 µM in test [10]; above 30 µM in test [11]; above 10 µM on Acetylcholinesterase; above 30 µM in test [13].
As to `CCCCCCCCCCC[C@@H](C[C@@H]1OC(=O)[C@H]1CCCCCC)OC(=O)[C@H](CC(C)C)NC=O` [ORLISTAT], the concentration at half-maximal activity (AC50) (in [1]; on Thromboxane A2 receptor [2]; on Thromboxane A2 receptor [3]; on Mu-type opioid receptor; in test [4]; in test [5]) was above 30 µM in each case. Also, the AC50 in test [6] was above 30 µM; on Bile salt export pump, above 300 µM; in [7] it was above 30 µM; on D(3) dopamine receptor, above 30 µM; in test [8], above 30 µM; at D(1A) dopamine receptor, above 30 µM. Moreover, the AC50 (at Histamine H3 receptor; in [9]; in [10]; in test [11]; in [12]; in test [13]) was above 30 µM throughout.
As to `CC(C)COc1ccc(CNC(=O)N(Cc2ccc(F)cc2)C2CCN(C)CC2)cc1` [PIMAVANSERIN], the AC50 is 12.8 µM in test [1]; 14.1 µM at Thromboxane A2 receptor [2]; above 3 µM on Thromboxane A2 receptor [3]; 16.7 µM on Mu-type opioid receptor; above 30 µM in test [4]; 4.6 µM in test [5]. Further, the AC50 in test [6] is 6.92 µM; on Bile salt export pump it was 65 µM; in [7], above 30 µM; at D(3) dopamine receptor, 2.66 µM; in test [8] it was above 30 µM; at D(1A) dopamine receptor, 5.78 µM. The AC50 on Histamine H3 receptor was 28.7 µM; in test [9] it was above 30 µM; in test [10], above 30 µM; in test [11], above 30 µM; on Acetylcholinesterase, above 30 µM; in [13], above 30 µM.
Take `CCCCCCCCNC(C)C(O)c1ccc(SC(C)C)cc1` (centres undefined) [SULOCTIDIL]: the AC50 in test [1] was 2.21 µM; at Thromboxane A2 receptor [2] it was above 10 µM; on Mu-type opioid receptor, 7.07 µM; in [4] it was above 30 µM; in test [5], 3.41 µM; in test [6], 1.39 µM. The half-maximal activity concentration (AC50) at Bile salt export pump was 64 µM; in test [7], 0.216 µM; at D(3) dopamine receptor it was 0.671 µM; in [8] it was above 30 µM; at D(1A) dopamine receptor, 11.3 µM; at Histamine H3 receptor it was 27.4 µM. The AC50 in [9] is 15.5 µM; in test [10], 20.9 µM; in [11] it was above 30 µM; on Acetylcholinesterase, above 30 µM; in test [12] it was 0.43 µM; in test [13] it was above 30 µM.
As to `Cn1c(=O)c2[nH]cnc2n(C)c1=O` [THEOPHYLLINE], the AC50 (in [1]; on Thromboxane A2 receptor [2]; at Thromboxane A2 receptor [3]; on Mu-type opioid receptor; in test [4]; in [5]) was above 30 µM in each case. The AC50 was above 30 µM in [6]; above 300 µM at Bile salt export pump; above 30 µM in test [7]; above 30 µM at D(3) dopamine receptor; above 30 µM in test [8]; above 30 µM on D(1A) dopamine receptor. Further, the concentration at half-maximal activity (AC50) (on Histamine H3 receptor; in test [9]; on Acetylcholinesterase; in [12]; in [13]) was above 30 µM throughout.
On to `NCCc1ccc(O)cc1` [TYRAMINE], for which the AC50 (in test [1]; at Thromboxane A2 receptor [2]; at Thromboxane A2 receptor [3]; at Mu-type opioid receptor; in test [4]; in test [5]) was above 30 µM each time. The AC50 was 22.2 µM in test [6]; above 300 µM at Bile salt export pump; 7.88 µM in test [7]; above 30 µM in [8]; above 30 µM on Histamine H3 receptor; above 3 µM in test [9]. Further, the AC50 (in test [10]; in test [11]; on Acetylcholinesterase; in test [12]; in [13]) was above 30 µM each time.
